This is an account of results in patent publication US20210317092A1 (BAYER PHARMA AKTIENGESELLSCHAFT, priority 2016, published 2021).

Like-named read-outs stand apart in the source and are kept apart here.

The target in assay [1] is T1, human Bradykinin B1 receptor (Homo sapiens, UniProt P46663).
T1 construct: host or cells: CHO-K1
T1 sequence (P46663 1-353): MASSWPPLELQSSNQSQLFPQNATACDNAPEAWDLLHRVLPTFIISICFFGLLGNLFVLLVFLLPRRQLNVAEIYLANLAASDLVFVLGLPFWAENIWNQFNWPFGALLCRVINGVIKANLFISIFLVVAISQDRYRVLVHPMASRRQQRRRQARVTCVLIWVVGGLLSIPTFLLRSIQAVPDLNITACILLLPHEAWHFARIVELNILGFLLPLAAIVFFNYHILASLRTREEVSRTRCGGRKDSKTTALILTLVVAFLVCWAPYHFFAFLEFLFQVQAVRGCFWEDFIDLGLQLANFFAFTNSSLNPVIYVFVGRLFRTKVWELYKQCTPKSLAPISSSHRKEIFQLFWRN
The assay can be described thus: Calcium flux Assay (FLIPR) with recombinant CHO-K1 cells expressing human Bradykinin B1 receptor, in presence (hB1 IC50) or absence (hB1 free IC50) of 0.1% BSA. It counts as cell-based.

For assay [2], the target named is T2, native human Bradykinin B1 receptor (Homo sapiens, UniProt P46663).
T2 construct: which express native human Bradykinin B1 receptor after induction with human IL-10; Coriell Institute; host or cells: IMR-90 human foetal lung fibroblasts, cytokine-induced
T2 sequence (P46663 1-353): T1 sequence (P46663 1-353)
The assay can be described thus: Calcium flux Assay (FLIPR) with human fibroblasts expressing Bradykinin B1 receptor (hB1 IMR-90). Format: cell-based. The following applies: IMR-90 human fibroblasts expressing native Bradykinin B1 receptor. The method, then: Calcium flux Assay (FLIPR) with human fibroblasts expressing Bradykinin B1 receptor (hB1 IMR-90)
The Calcium flux Assay was carried out utilising IMR-90 human foetal lung fibroblasts (American Type Culture Collection, Rockville, Md.; and Coriell Institute, Camden, N.J.), which express native human Bradykinin B1 receptor after induction with human […].
The fibroblasts were cultured in complete growth media comprised of Dulbecco's modified Eagle's medium (DMEM; Sigma) containing 10% foetal bovine serum, 4 mM L-glutamine, and 1% nonessential amino acids. The cells were maintained in a humidified atmosphere with 5% CO2 at 37° C. and were sub-cultured at a ratio of 1:3, every other day.
For the assay, IMR-90 fibroblasts were harvested using TrypLE Express (GIBCO/Invitrogen) and seeded into 384-well plates (Corning Cellbinding Surface, Cat. 3683) at a density of 15000 cells/well. The following day, cells were treated with 0.35 ng/mL human […] in 10% FBS/MEM for 3h to up-regulate Bradykinin B1 receptor. Induced cells were loaded with fluorescent calcium indicator by incubation with 2.5 μM Fluo-4/AM (Invitrogen) at 37° C., 5% CO2 for 2 h in the presence of 2.5 mM probenecid in 1% FBS/MEM. Extracellular dye was removed by washing with assay buffer (2.5 mM probenecid and 0.1% BSA in 20 mM HEPES/HBSS without bicarbonate or phenol red, pH 7.5). Compound examples were assayed at 8 concentrations in triplicate. After addition of compound examples to the cell plate and incubation for 30 min at 28° C., the addition of Bradykinin B1 agonist Lys-(Des-Arg)-Bradykinin (Bachem, Brackley) at a final concentration of EC90 was carried out on the FLIPR instrument while continuously monitoring Ca^2+-dependent fluorescence at 538 nm. A peptide antagonist Lys-(Des-Arg-Leu)-Bradykinin (Bachem, Brackley) at 20 µM was used to determine the full inhibition as control. IC50 values were determined by the same way described for the FLIPR assay with recombinant cells.

[3] abbreviates: in absence of 0.1% BSA, read-out: hB1 free IC50.
Where [4] appears, read: in presence of 0.1% BSA, read-out: hB1 IC50.

As to `O=C(Nc1ccc(-c2ccc(C(F)F)nc2)c(-c2nnn[nH]2)c1)C1(c2ccc(C(F)(F)F)cc2F)CC1` [Example 259, N-{4-[6-(difluoromethyl)pyridin-3-yl]-3-(1H-tetrazol-5-yl)phenyl}-1-[2-fluoro-4-(trifluoromethyl)phenyl]cyclopro-panecarboxamide], the IC50 in assay [1] (setting [3]) was found to be 3.52 nM; in assay [2], 10.6 nM.

With `O=C(Nc1cc(-c2nnn[nH]2)c(-c2ccc(C(F)(F)F)nc2)cc1O)C1(c2ccc(F)c(Cl)c2)CC1` [Example 220, 1-(3-chloro-4-fluorophenyl)-N-{2-hydroxy-5-(1H-tetrazol-5-yl)-4-[6-(trifluoromethyl)pyridin-3-yl]phenyl} cyclopropane-carboxamide], the IC50 in assay [1] (setting [3]) worked out at 27.4 nM; in assay [1] (setting [4]) it was 49.8 nM; in assay [2], 23.1 nM.

Consider `Cc1ccc(-c2ccc(NC(=O)C3(c4cccc(Cl)c4)CC3)cc2-c2nnn[nH]2)cn1` [Example 208, 1(3-chlorophenyl)-N-[4-(6-methylpyridin-3-yl)-3-(1H-tetrazol-5-yl)phenyl] cyclopropane-carboxamide], for which the IC50 was 22.6 nM in assay [1] (setting [3]), 15.8 nM in assay [1] (setting [4]) and 11.2 nM in assay [2].

For `O=C(Nc1cc(-c2nnn[nH]2)c(-c2ccc(C(F)(F)F)nc2)cc1O)C1(c2cc(Cl)ccc2F)CC1` [Example 222], the IC50 in assay [1] (setting [4]) was determined as 75.7 nM; in assay [2], 55.6 nM.

For `CCOc1ccc(-c2ccc(NC(=O)C3(c4cccc(C)c4)CC3)cc2-c2nnn[nH]2)cn1` [Example 94, N-[4-(6-ethoxypyridin-3-yl)-3-(1H-tetrazol-5-yl)phenyl]-1-(3-methylphenyl) cyclopropane-carboxamide], the figures for the IC50 in assay [1] (setting [4]) and in assay [2] were 23.8 nM and 25.1 nM, respectively.

As to `CCOc1ccc(-c2c(Cl)cc(NC(=O)C3(c4cccc(Cl)c4)CC3)cc2-c2nnn[nH]2)cn1` [Example 247, N-[3-chloro-4-(6-ethoxypyridin-3-yl)-5-(1H-tetrazol-5-yl)phenyl]-1-(3-chlorophenyl) cyclopropane-carboxamide], the IC50 in assay [1] (setting [3]) turned out to be 20 nM; in assay [1] (setting [4]) it was 61.8 nM; in assay [2], 37.3 nM.

In the case of `CCOc1ccc(-c2ccc(NC(=O)C3(c4ccc(Cl)cc4)CC3)cc2-c2nnn[nH]2)cn1` [Example 100, 1-(4-chlorophenyl)-N-[4-(6-ethoxypyridin-3-yl)-3-(1H-tetrazol-5-yl)phenyl] cyclopropane-carboxamide], the results for the IC50 in assay [1] (setting [3]), in assay [1] (setting [4]) and in assay [2] were 5.56 nM, 20.2 nM and 8.84 nM, respectively.

Regarding `Cc1cncc(-c2ccc(NC(=O)C3(c4cccc(Cl)c4)CC3)cc2-c2nnn[nH]2)c1` [Example 326, 1-(3-chlorophenyl)-N-[4-(5-methylpyridin-3-yl)-3-(1H-tetrazol-5-yl)phenyl]cyclopro-panecarboxa-mide], the figures for the IC50 in assay [1] (setting [3]), in assay [1] (setting [4]) and in assay [2] were 20 nM, 22.3 nM and 45.2 nM, respectively.

Take `O=C(Nc1ccc(-c2cnc(C(F)(F)F)nc2)c(-c2nnn[nH]2)c1)C1(c2cccc(Cl)c2)CC1` [Example 196, 1-(3-chlorophenyl)-N-{3-(1H-tetrazol-5-yl)-4-[2-(trifluoromethyl)pyrimidin-5-yl]phenyl} cyclopropane-carboxamide]: the IC50 in assay [1] (setting [3]) turned out to be 759 nM; in assay [1] (setting [4]), 1370 nM; in assay [2] it was 1450 nM.

In the case of `COc1ccc(-c2ccc(NC(=O)C3(C4CCC(C)(C)CC4)CC3)cc2-c2nnn[nH]2)cc1OC` [Example 56, N-[3′,4′-dimethoxy-2-(1H-tetrazol-5-yl)biphenyl-4-yl]-1-(4,4-dimethyl-cyclohexyl) cyclopropane-carboxamide], the IC50 in assay [1] (setting [3]) stood at 15.3 nM; in assay [1] (setting [4]) it was 21.7 nM; in assay [2], 20.2 nM.

As to `CCOc1ncc(-c2ccc(NC(=O)C3(c4cccc(Cl)c4)CC3)cc2-c2nnn[nH]2)cc1C` [Example 160, 1-(3-chlorophenyl)-N-[4-(6-ethoxy-5-methylpyridin-3-yl)-3-(1H-tetrazol-5-yl)phenyl] cyclopropane-carboxamide], the values for the IC50 in assay [1] (setting [3]), in assay [1] (setting [4]) and in assay [2] were 8.13 nM, 47.7 nM and 26.7 nM, respectively.

In the case of `Cc1ccc(-c2ccc(NC(=O)C3(c4ccc(C(F)(F)F)cc4F)CC3)cc2-c2nnn[nH]2)cn1` [Example 209, 1-[2-fluoro-4-(trifluoromethyl)phenyl]-N-[4-(6-methylpyridin-3-yl)-3-(1H-tetrazol-5-yl)phenyl] cyclopropane-carboxamide], the half-maximal inhibitory concentration (IC50) was 2.96 nM in assay [1] (setting [3]) and 3.05 nM in assay [2].

Take `CC(C)(O)c1ccc(-c2ccc(NC(=O)C3(c4cccc(Cl)c4)CC3)cc2-c2nnn[nH]2)cn1` [Example 340, 1-(3-chlorophenyl)-N-{4-[6-(2-hydroxypropan-2-yl)pyridin-3-yl]-3-(1H-tetrazol-5-yl)phenyl}cyclopro-panecarboxa-mide]: the IC50 in assay [1] (setting [3]) amounted to 265 nM; in assay [1] (setting [4]), 161 nM; in assay [2] it was 108 nM.

Regarding `O=C(Nc1ccc(-c2ccnc(C(F)F)c2)c(-c2nnn[nH]2)c1)C1(c2ccc(C(F)(F)F)cc2F)CC1` [Example 258, N-{4-[2-(difluoromethyl)pyridin-4-yl]-3-(1H-tetrazol-5-yl)phenyl}-1-[2-fluoro-4-(trifluoromethyl)phenyl]cyclopro-panecarboxamide], the values for the IC50 in assay [1] (setting [3]) and in assay [2] were 35.2 nM and 47.3 nM, respectively.

On to `O=C(Nc1ccc(-c2ccnc(C(F)(F)F)c2)c(-c2nnn[nH]2)c1)C1(c2cccc(Cl)c2)CC1` [Example 171, 1-(3-chlorophenyl)-N-{3-(1H-tetrazol-5-yl)-4-[2-(trifluoromethyl)pyridin-4-yl]phenyl} cyclopropane-carboxamide], for which the IC50 in assay [1] (setting [3]) stood at 422 nM; in assay [1] (setting [4]), 358 nM; in assay [2] it was 281 nM.

Take `COc1ccc(-c2ccc(NC(=O)C3(c4ccc(F)c(C)c4)CC3)cc2-c2nnn[nH]2)cc1OC` [Example 48, N-[3′,4′-dimethoxy-2-(1H-tetrazol-5-yl)biphenyl-4-yl]-1-(4-fluoro-3-methylphenyl) cyclopropane-carboxamide]: the 50% inhibitory concentration (IC50) in assay [1] (setting [4]) turned out to be 50.5 nM; in assay [2] it was 29.3 nM.

Take `COc1ccc(-c2c(F)cc(NC(=O)C3(c4ccc(C(F)(F)F)cc4)CC3)cc2-c2nnn[nH]2)cc1OC` [Example 232, N-[2-Fluoro-3′,4′-dimethoxy-6-(1H-tetrazol-5-yl)biphenyl-4-yl]-1-[4-(trifluoromethyl)phenyl] cyclopropane-carboxamide]: the IC50 in assay [1] (setting [3]) was found to be 8.26 nM; in assay [1] (setting [4]), 18.6 nM; in assay [2], 6.8 nM.

In the case of `Cc1ccc(-c2c(F)cc(NC(=O)C3(c4ccc(C(F)(F)F)cc4F)CC3)cc2-c2nnn[nH]2)cn1` [Example 266, N-[3-fluoro-4-(6-methylpyridin-3-yl)-5-(1H-tetrazol-5-yl)phenyl]-1-[2-fluoro-4-(trifluoromethyl)phenyl]cyclopro-panecarboxamide], the figures for the half-inhibitory concentration (IC50) in assay [1] (setting [3]) and in assay [2] were 3.45 nM and 2.38 nM, respectively.

Take `CCOc1ccc(-c2ccc(NC(=O)C3(c4ccc(F)c(F)c4)CC3)cc2-c2nnn[nH]2)cn1` [Example 82, 1-(3,4-difluorophenyl)-N-[4-(6-ethoxypyridin-3-yl)-3-(1H-tetrazol-5-yl)phenyl] cyclopropane-carboxamide]: the IC50 in assay [1] (setting [3]) was found to be 29.1 nM; in assay [1] (setting [4]), 33.3 nM; in assay [2] it was 14.9 nM.

Take `CCCOc1ccc(-c2ccc(NC(=O)C3(c4ccc(F)cc4F)CC3)cc2-c2nnn[nH]2)cn1` [Example 112, 1-(2,4-difluorophenyl)-N-[4-(6-propoxypyridin-3-yl)-3-(1H-tetrazol-5-yl)phenyl] cyclopropane-carboxamide]: the IC50 in assay [1] (setting [3]) came to 16.2 nM; in assay [1] (setting [4]), 44.9 nM; in assay [2] it was 20.4 nM.

As for `COCc1ccc(-c2ccc(NC(=O)C3(c4cccc(Cl)c4)CC3)cc2-c2nnn[nH]2)cn1` [Example 125, 1-(3-chlorophenyl)-N-{4-[6-(methoxymethyl)pyridin-3-yl]-3-(1H-tetrazol-5-yl)phenyl} cyclopropane-carboxamide], the values for the IC50 in assay [1] (setting [3]), in assay [1] (setting [4]) and in assay [2] were 23.3 nM, 13.8 nM and 26 nM, respectively.
